Experimental data from ChEMBL document CHEMBL1201862, “PubChem BioAssay data set” (2004).
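Tested at 5 concentrations; 48 h exposure; 96-well plates; endpoints linearly interpolated, else capped at highest concentration. GI50 = concentration required for 50% inhibition of growth.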 Active and inactive are the calls of the source. Rule as the data show it: active = GI50 up to about 1.1 µM and inactive = higher.

Experiments:
Test in all cases: NCI-60 cell line screen, 48 h
[1] = tested on: U-251
[2] = tested on: TK-10
[3] = tested on: RXF 393
[4] = tested on: M14
[5] = tested on: HOP-92
[6] = tested on: NCI-H460
[7] = tested on: KM-20L2
[8] = tested on: UO-31
[9] = tested on: NCI-H522
[10] = tested on: SK-OV-3
[11] = tested on: SK-MEL-5
[12] = tested on: SN12C
[13] = tested on: OVCAR-8
[14] = tested on: Malme-3M
[15] = tested on: OVCAR-3
[16] = tested on: SR
[17] = tested on: BT-549
[18] = tested on: T47D
[19] = tested on: Hs-578T
[20] = tested on: MDA-MB-231

Measured: GI50

CCNC(=O)O/N=C1/C=C2CC[C@@H]3C(CC[C@@]4(C)C3CC[C@@H]4OC(=O)NCC)[C@@]2(C)CC1 (stereo partly drawn)
inactive: [1] 2.42 µM | [2] 2.56 µM | [3] 1.62 µM | [4] 2.96 µM | [5] 4.43 µM | [6] 3.46 µM | [7] 2.28 µM | [8] 1.78 µM | [9] 1.95 µM | [10] 3.68 µM | [11] 3.44 µM | [12] 4.28 µM | [13] 4.32 µM

O=c1cccccc1NCCCCCCCNc1cccccc1=O
inactive: [1] > 10 µM | [14] 29.2 µM | [3] 7.74 µM | [4] 23 µM | [5] 41.6 µM | [15] 24.5 µM | [6] 29.7 µM | [7] 38.1 µM | [8] 25.3 µM | [16] 22.1 µM | [9] 13.8 µM | [10] 42.6 µM | [12] 49.3 µM | [13] 31.6 µM

N=C(N)N/N=C(/CCN1CCCC1)CC(c1ccccc1)c1c(O)c2ccccc2oc1=O (stereo not drawn)
inactive: [2] > 100 µM | [14] > 100 µM | [3] > 100 µM | [4] > 100 µM | [5] 16.7 µM | [15] > 100 µM | [7] > 100 µM | [9] > 100 µM | [10] > 100 µM | [12] > 100 µM

C=CCNC(=S)N1c2ccccc2NC(=O)CC1C (stereo not drawn)
inactive: [1] > 100 µM | [2] > 100 µM | [14] > 100 µM | [3] > 100 µM | [4] > 100 µM | [15] > 100 µM | [6] > 100 µM | [7] > 100 µM | [8] > 100 µM | [16] > 100 µM | [9] > 100 µM | [11] > 100 µM | [12] > 100 µM | [13] > 100 µM

O=c1oc2c3ccc4ccccc4c3n(CCN3CCCCC3)c2c2ccccc12
inactive: [1] 17.7 µM | [2] 37.2 µM | [14] 30.3 µM | [3] 14.8 µM | [4] 20 µM | [5] > 100 µM | [15] 18.5 µM | [6] 4.12 µM | [7] > 61 µM | [8] 49.4 µM | [16] 3.21 µM | [9] 17.9 µM | [10] 43.1 µM | [11] 40.7 µM | [12] > 100 µM | [13] 19 µM

CCOC(=O)/C(=C/c1ccc(OC)c(OC)c1)C(=O)c1ccccc1
inactive: [1] 19.5 µM | [2] 26.4 µM | [14] 76.6 µM | [4] 13.9 µM | [15] 18 µM | [6] 33.3 µM | [7] 18.4 µM | [8] 14.4 µM | [9] 13.9 µM | [10] 24.2 µM | [11] 14.3 µM | [12] > 10 µM | [13] 22.3 µM

Cc1ccc(Oc2ccccc2N)cc1
inactive: [1] 4.43 µM | [2] 88.1 µM | [14] > 100 µM | [3] 25.9 µM | [4] 33.5 µM | [5] 37.8 µM | [15] 15.8 µM | [6] 37.8 µM | [7] 12.7 µM | [8] 12.4 µM | [16] 9.31 µM | [10] > 100 µM | [11] 7.89 µM | [12] 31.7 µM | [13] 79.3 µM

CN(C)CC1CCCC/C1=N/OC(=O)c1ccc(Cl)cc1 (stereo not drawn)
inactive: [1] > 100 µM | [2] > 100 µM | [14] > 100 µM | [3] > 100 µM | [4] > 100 µM | [5] > 100 µM | [15] > 100 µM | [6] > 100 µM | [7] > 100 µM | [8] > 100 µM | [16] > 100 µM | [9] > 100 µM | [10] > 100 µM | [12] > 100 µM | [13] > 100 µM

Cc1[nH]c2ccccc2c1CC/C(=N\Nc1ccccc1)c1ccccc1
inactive: [1] > 100 µM | [2] > 100 µM | [14] > 100 µM | [3] > 100 µM | [4] > 100 µM | [15] > 100 µM | [6] > 100 µM | [7] > 100 µM | [8] > 100 µM | [10] > 100 µM | [11] > 100 µM | [13] > 100 µM

Cn1c(=O)c2nc(-c3ccc(Cl)cc3)oc2n(C)c1=O
inactive: [1] > 100 µM | [2] > 100 µM | [14] > 100 µM | [3] > 100 µM | [4] > 100 µM | [5] > 100 µM | [15] > 100 µM | [6] > 100 µM | [7] > 100 µM | [8] > 100 µM | [16] > 100 µM | [9] > 100 µM | [11] > 100 µM | [12] > 100 µM | [13] > 100 µM

CC(=O)NC1=CC(=O)C=C(Cl)C1=O
inactive: [17] > 100 µM | [18] > 100 µM | [1] > 100 µM | [2] > 100 µM | [14] 25.7 µM | [19] > 100 µM | [3] 92.5 µM | [4] 42.3 µM | [5] > 100 µM | [15] > 100 µM | [6] > 100 µM | [8] > 100 µM | [16] 22.4 µM | [9] 28.9 µM | [20] > 100 µM | [10] > 100 µM | [11] > 100 µM | [12] > 100 µM | [13] > 100 µM

COC(=O)[C@H](C)NC(=O)C1(CNC(=O)[C@H](C)NC(=O)OC(C)(C)C)Cc2ccccc2-c2ccccc2C1
inactive: [17] > 43.6 µM | [18] 21.8 µM | [1] 17.9 µM | [2] 27 µM | [14] 19.1 µM | [19] > 37.2 µM | [3] 25.5 µM | [4] > 45.9 µM | [5] 5.51 µM | [15] 17.5 µM | [6] 19.7 µM | [8] 4.67 µM | [16] 20 µM | [9] 7.52 µM | [20] 17.9 µM | [10] 30.5 µM | [11] 23.3 µM | [12] 17.7 µM | [13] 6.78 µM

Nn1c(Sc2nc3ccccc3c(=O)n2N)nc2ccccc2c1=O
inactive: [17] 1.77 µM | [18] 5.09 µM | [1] 7.03 µM | [2] 21.2 µM | [14] 3.57 µM | [19] 17.1 µM | [3] 7.85 µM | [4] 1.8 µM | [5] 6.92 µM | [15] 11.1 µM | [6] 19.5 µM | [8] 1.73 µM | [16] 2.02 µM | [9] 1.69 µM | [20] 7.93 µM | [10] 20.4 µM | [11] 3.96 µM | [12] 5.75 µM | [13] 2.77 µM

COc1ccc(/C=C(\C#N)c2nc(N)nc(N3N=C(C)CC3(C)C)n2)c(O)c1
inactive: [17] 34 µM | [18] 15.9 µM | [1] 26.7 µM | [2] 30.2 µM | [14] 14.4 µM | [19] 18.3 µM | [3] 16.1 µM | [4] 20.3 µM | [5] 31.5 µM | [15] 15 µM | [6] 17.3 µM | [8] 17.3 µM | [16] 16.9 µM | [9] 21.7 µM | [20] 17.8 µM | [10] 26.9 µM | [11] 15.2 µM | [12] 26.8 µM | [13] 32.7 µM

COC(=O)NN1C(C)=C(C(=O)OC)C2(C#N)C(C(=O)OC)=C(C)N(NC(=O)OC)C12N (stereo not drawn)
inactive: [1] > 100 µM | [2] > 100 µM | [14] > 100 µM | [4] > 100 µM | [5] > 100 µM | [6] > 100 µM | [7] > 100 µM | [8] > 100 µM | [9] > 100 µM | [10] > 100 µM | [12] > 100 µM | [13] > 100 µM

Cc1cc(S(=O)(=O)Nc2nnc3c(Cl)cc(C(F)(F)F)cn23)c(S)cc1Cl
inactive: [17] 25.9 µM | [18] 37.2 µM | [1] 36 µM | [2] > 100 µM | [14] 91 µM | [19] > 64.9 µM | [3] > 100 µM | [4] > 83.8 µM | [5] > 100 µM | [15] 49.9 µM | [6] 41.8 µM | [8] 30.2 µM | [16] 66.8 µM | [9] 63.5 µM | [20] > 59.3 µM | [10] 44.9 µM | [11] 22.8 µM | [12] > 96.6 µM | [13] 50.4 µM

C#CC[C@]12CC(=O)CC[C@H]1CC(=O)C2
inactive: [1] > 100 µM | [2] > 100 µM | [14] > 100 µM | [3] > 100 µM | [4] > 100 µM | [15] > 100 µM | [6] > 100 µM | [7] > 100 µM | [8] > 100 µM | [16] > 100 µM | [9] > 100 µM | [10] > 100 µM | [11] > 100 µM | [12] > 100 µM | [13] > 100 µM

O=C1CCCCC(=O)Nc2ccccc2N1
inactive: [17] > 100 µM | [18] > 100 µM | [1] > 100 µM | [2] > 100 µM | [14] > 100 µM | [19] > 100 µM | [3] > 100 µM | [4] > 100 µM | [5] > 100 µM | [15] > 100 µM | [6] > 100 µM | [8] > 100 µM | [16] 39.4 µM | [9] > 100 µM | [20] > 100 µM | [10] > 100 µM | [11] > 100 µM | [12] > 100 µM | [13] > 100 µM
